According to patent US20190031667A1, “PESTICIDALLY ACTIVE HETEROCYCLIC DERIVATIVES WITH SULPHUR CONTAINING SUBSTITUENTS” (SYNGENTA PARTICIPATIONS AG, priority 2016, published 2019):

How the values were obtained:
Format in all cases: in vivo
[1] = system: Spodoptera littoralis (Egyptian cotton leaf worm); assay: Example B2: Activity against Spodoptera littoralis, systemic via lettuce roots in agar; conditions: 144 h, test rate 12.5 ppm, uptake by lettuce roots from agar, 6 days after infestation, read-out: effect in at least one of the three categories (mortality, anti-feeding, or growth inhibition)
Source text: Example B2: Activity against Spodoptera littoralis (Egyptian cotton leaf worm) Test compounds were applied by pipette from 10′000 ppm DMSO stock solutions into 24-well plates and mixed with agar. Lettuce seeds were placed onto the agar and the multi well plate was closed by another plate which contained also agar. After 7 days the compound was absorbed by the roots and the lettuce grew into the lid plate. The lettuce leaves were then cut off into the lid plate. Spodoptera eggs were pipetted through a plastic stencil onto a humid gel blotting paper and the lid plate was closed with it. The samples were assessed for mortality, anti-feedant effect and growth inhibition in comparison to untreated samples 6 days after infestation.

[2] = system: Spodoptera littoralis (Egyptian cotton leaf worm); assay: Example B1: Activity against Spodoptera littoralis, sprayed cotton leaf discs; conditions: foliar, 72 h, application rate 200 ppm, L1 larvae, 3 days after infestation
Procedure: Example B1: Activity against Spodoptera littoralis (Egyptian cotton leaf worm) Cotton leaf discs were placed onto agar in 24-well microtiter plates and sprayed with aqueous test solutions prepared from 10′000 ppm DMSO stock solutions. After drying the leaf discs were infested with five L1 larvae. The samples were assessed for mortality, anti-feeding effect, and growth inhibition in comparison to untreated samples 3 days after infestation. Control of Spodoptera littoralis by a test sample is given when at least one of the categories mortality, anti-feedant effect, and growth inhibition is higher than the untreated sample.

[3] = system: Diabrotica Balteata (Corn Root Worm); assay: Example B4: Activity against Diabrotica balteata, sprayed maize sprouts; conditions: 96 h, application rate 200 ppm, L2 larvae, 4 days after infestation, read-out: effect in at least one of the two categories (mortality or growth inhibition)
Procedure: Example B4: Activity Against Diabrotica Balteata (Corn Root Worm)
Maize sprouts, placed onto an agar layer in 24-well microtiter plates were treated with aqueous test solutions prepared from 10′000 ppm DMSO stock solutions by spraying. After drying, the plates were infested with L2 larvae (6 to 10 per well). The samples were assessed for mortality and growth inhibition in comparison to untreated samples 4 days after infestation.

[4] = system: Euschistus heros (Neotropical Brown Stink Bug); assay: Example B8: Activity against Euschistus heros, sprayed soybean leaves; conditions: 120 h, application rate 200 ppm, N2 nymphs, 5 days after infestation, read-out: effect in at least one of the two categories (mortality or growth inhibition)
Procedure: Example B8: Activity Against Euschistus heros (Neotropical Brown Stink Bug)
Soybean leaves on agar in 24-well microtiter plates were sprayed with aqueous test solutions prepared from 10′000 ppm DMSO stock solutions. After drying the leaves were infested with N2 nymphs. The samples were assessed for mortality and growth inhibition in comparison to untreated samples 5 days after infestation.

[5] = system: Plutella xylostella (Diamond Back Moth); assay: Example B3: Activity against Plutella xylostella, artificial diet; conditions: 120 h, application rate 200 ppm, L2 larvae, 5 days after infestation, read-out: effect in at least one of the two categories (mortality or growth inhibition)
Procedure: Example B3: Activity Against Plutella xylostella (Diamond Back Moth)
24-well microtiter plates with artificial diet were treated with aqueous test solutions prepared from 10′000 ppm DMSO stock solutions by pipetting. After drying, the plates were infested with L2 larvae (10 to 15 per well). The samples were assessed for mortality and growth inhibition in comparison to untreated samples 5 days after infestation.

[6] = system: Myzus persicae (Green Peach Aphid); assay: Example B5: Activity against Myzus persicae, sprayed sunflower leaf discs; conditions: foliar, 144 h, application rate 200 ppm, mixed-age aphids, 6 days after infestation
Procedure: Example B5: Activity Against Myzus persicae (Green Peach Aphid)
Sunflower leaf discs were placed onto agar in a 24-well microtiter plate and sprayed with aqueous test solutions prepared from 10′000 ppm DMSO stock solutions. After drying, the leaf discs were infested with an aphid population of mixed ages. The samples were assessed for mortality 6 days after infestation.

[7] = system: Bemisia tabaci (Cotton White Fly); assay: Example B7: Activity against Bemisia tabaci, sprayed cotton leaf discs; conditions: foliar, 144 h, application rate 200 ppm, adult white flies, 6 days after incubation
Procedure: Example B7: Activity Against Bemisia tabaci (Cotton White Fly)
Cotton leaf discs were placed onto agar in 24-well microtiter plates and sprayed with aqueous test solutions prepared from 10′000 ppm DMSO stock solutions. After drying the leaf discs were infested with adult white flies. The samples were checked for mortality 6 days after incubation.

[8] = system: Myzus persicae (Green Peach Aphid); assay: Example B6: Activity against Myzus persicae, systemic via pea seedling roots; conditions: 144 h, test rate 24 ppm, roots of infested pea seedlings in test solution, 6 days
Procedure: Example B6: Activity Against Myzus persicae (Green Peach Aphid)
Roots of pea seedlings infested with an aphid population of mixed ages were placed directly in the aqueous test solutions prepared from 10′000 DMSO stock solutions. The samples were assessed for mortality 6 days after placing seedlings in test solutions.

CCS(=O)(=O)c1ccc(NC)nc1-n1cc2cnc(C(F)(F)F)cc2n1 [Compound P15]
≥ 80%: percent effect (mortality, anti-feeding or growth inhibition) at 12.5 ppm [1] | percent control (mortality, anti-feedant effect or growth inhibition) at 200 ppm [2] | percent effect (mortality or growth inhibition) at 200 ppm [3] | percent effect (mortality or growth inhibition) at 200 ppm [4] | percent effect (mortality or growth inhibition) at 200 ppm [5] | mortality at 200 ppm [6]

CCS(=O)(=O)c1cc(Cl)c(N)nc1-n1cc2cnc(C(F)(F)F)cc2n1 [Compound P19, 3-chloro-5-ethylsulfonyl-6-[6-(trifluoromethyl)pyrazolo[4,3-c]pyridin-2-yl]pyridin-2-amine]
≥ 80%: percent effect (mortality, anti-feeding or growth inhibition) at 12.5 ppm [1] | percent control (mortality, anti-feedant effect or growth inhibition) at 200 ppm [2] | percent effect (mortality or growth inhibition) at 200 ppm [3] | percent effect (mortality or growth inhibition) at 200 ppm [4] | percent effect (mortality or growth inhibition) at 200 ppm [5] | mortality at 200 ppm [6]

CCS(=O)(=O)c1ccc(-n2cccn2)nc1-n1nc2cc(C(F)(F)F)ncc2c1Cl [Compound P11]
≥ 80%: mortality at 200 ppm [7]

CCS(=O)(=O)c1ccc(-n2cncn2)nc1-n1cc2cnc(C(F)(F)F)cc2n1 [Compound P3, 2-[3-ethylsulfonyl-6-(1,2,4-triazol-1-yl)-2-pyridyl]-6-(trifluoromethyl)pyrazolo[4,3-c]pyridine]
≥ 80%: percent effect (mortality, anti-feeding or growth inhibition) at 12.5 ppm [1] | percent control (mortality, anti-feedant effect or growth inhibition) at 200 ppm [2] | percent effect (mortality or growth inhibition) at 200 ppm [3] | percent effect (mortality or growth inhibition) at 200 ppm [4] | percent effect (mortality or growth inhibition) at 200 ppm [5] | mortality at 200 ppm [6]

CCS(=O)(=O)c1ccc(N)nc1-n1cc2cnc(C(F)(F)F)cc2n1 [Compound P16, 5-ethylsulfonyl-6-[6-(trifluoromethyl)pyrazolo[4,3-c]pyridin-2-yl]pyridin-2-amine]
≥ 80%: percent effect (mortality, anti-feeding or growth inhibition) at 12.5 ppm [1] | percent control (mortality, anti-feedant effect or growth inhibition) at 200 ppm [2] | percent effect (mortality or growth inhibition) at 200 ppm [3] | percent effect (mortality or growth inhibition) at 200 ppm [4] | mortality at 24 ppm [8] | percent effect (mortality or growth inhibition) at 200 ppm [5] | mortality at 200 ppm [6]

CCS(=O)(=O)c1ccc(-n2cnc(Cl)n2)nc1-n1cc2cnc(C(F)(F)F)cc2n1 [Compound P25]
≥ 80%: percent control (mortality, anti-feedant effect or growth inhibition) at 200 ppm [2] | percent effect (mortality or growth inhibition) at 200 ppm [3] | percent effect (mortality or growth inhibition) at 200 ppm [4] | percent effect (mortality or growth inhibition) at 200 ppm [5] | mortality at 200 ppm [7] | mortality at 200 ppm [6]
